Calls of active or inactive are those of the source. The calls are words filed in the database; no cut-off is given here.
Legend:
[1] = Competitive inhibition of Cytophaga hutchinsonii KMO using 5-Br-kynurenine as substrate assessed as decrease in NADPH consumption by UV/Vis spectrophotometer
[2] = system: Cytophaga hutchinsonii; assay: Activity at Cytophaga hutchinsonii KMO at 0.2 mM after 30 mins by HPLC method
[3] = system: Cytophaga hutchinsonii; assay: Activity at Cytophaga hutchinsonii KMO by ESI-LC/MS method
[4] = system: Cytophaga hutchinsonii; assay: Ratio of Kcat to Km for Cytophaga hutchinsonii KMO
[5] = system: Cytophaga hutchinsonii; assay: Activity at Cytophaga hutchinsonii KMO assessed as NADPH consumption by UV/Vis spectrophotometer

Ki [1] | kcat/Km [4] | Km [5] | kcat [5] | Compound | further results
13.8 µM | – | – | – | Nc1c(Cl)cccc1C(=O)CC(N)C(=O)O (stereo not drawn) | –
8.6 µM | – | – | – | Cc1cccc(C(=O)CC(N)C(=O)O)c1N (stereo not drawn) | –
– | 1.3 ×10⁵ /M/s | 4.5 µM | 0.6 s⁻¹ | Nc1ccc(Br)cc1C(=O)C[C@H](N)C(=O)O | Activity [2]: Active; Activity [3]: Active
– | 4 ×10⁵ /M/s | 2 µM | 0.8 s⁻¹ | Nc1ccc(Cl)cc1C(=O)C[C@H](N)C(=O)O | –
– | 5.3 ×10⁴ /M/s | 67 µM | 2 s⁻¹ | Nc1ccccc1C(=O)C[C@H](N)C(=O)O | –

Second part, the compound before the results:

Compound | Ki [1] | kcat/Km [4] | Km [5] | kcat [5] | further results
COc1ccc(C(=O)NCC(=O)O)cc1OC | 1000 µM | – | – | – | –
Cc1cc(Br)cc(C(=O)CC(N)C(=O)O)c1N (stereo not drawn) | 10.2 µM | – | – | – | –
O=C(O)CNC(=O)c1ccc(Cl)c(Cl)c1 | 34 µM | – | – | – | –
Nc1c(Cl)cc(Br)cc1C(=O)CC(N)C(=O)O (stereo not drawn) | 11 µM | – | – | – | –
Nc1c(Br)cc(Br)cc1C(=O)C[C@H](N)C(=O)O | 1.5 µM | – | – | – | –

— ChEMBL document CHEMBL4007495, “Substrate and inhibitor specificity of kynurenine monooxygenase from Cytophaga hutchinsonii” (Bioorg Med Chem Lett, 2017)
